Test results as given in patent US20110306606A1, “NOVEL 2,6-SUBSTITUTED-3-NITROPYRIDINE DERIVATIVE, METHOD FOR PREPARING SAME, AND PHARMACEUTICAL COMPOSITION INCLUDING SAME” (priority 2008, published 2011).
Read-outs that look alike come from different tables or passages of the source.

Columns and labels:
[1] = system: Osteoblasts (Calvarial cells); settings: ICR, mouse, 72 h, 1 μM
Procedure: (§1) For the preparation of osteoblasts (Calvarial cells), the calvaria were aseptically dissected from 1 to 2-day-old neonatal ICR mice and subjected to continuous reaction with a 0.2% collagenase solution to separate osteoblasts. The cell-suspended supernatant was centrifuged to recover osteoblasts which were grown to full confluence in an α-MEM supplemented with 10% FBS and then diluted to a desired cell density for use in the experiment.
(§2) Cytotoxicity of the compounds of the present invention was evaluated by carrying out the experiment described below.
(§3) The vehicle control group was established to contain 0.2% DMSO. 100 μL/well of the diluted drugs were dispensed into 96-well plates to which osteoblasts (calvarial cells) prepared in Experimental Example 1 were then added at a density of 1.0×10^4 cells/100 μL/well. Here, the final compound concentration in the cell culture was 1 μM, and the vehicle control group contained 0.1% DMSO. The cells were cultured in a 5% CO2 inhibitor at 37° for 72 hours. 25 μL of 3-(4,5-dimethyl-2-thiazolyl)-2,5-diphenyl-2H-tetrazolium bromide (MTT) dissolved in PBS (2 mg/mL) was added to each cell culture 4 hours before the end of culture. After completion of the reaction, the plates were centrifuged, the media were discarded, and 100 μL of formazan was added and dissolved in dimethyl sulfoxide (DMSO). Finally, the absorbance of the developed plates was measured at 540 nm. The cell viability was expressed as % concentration in comparison with the vehicle control group.

[2] = system: formation of osteoclasts in co-culture of bone marrow cells and osteoblasts; assay: Osteoclastogenesis inhibition via co-culture system (TRAP staining); format: cell-based, mice; settings: 1 μM compound, 7 days co-culture, TRAP-positive multinucleated osteoclasts vs vehicle control; for inhibition at 1 µM: Mus musculus, Osteoclast, 168 h
Procedure: Osteoclastogenesis inhibitory effects of the compounds of the present invention were evaluated via a co-culture system (Reference: Endocrinology 137(1996), 2187 to 2190, E. Jimi et al.). A specific experimental method is as follows.
1) Preparation of Bone Marrow Cells and Osteoblasts
Femora and tibia were aseptically dissected from 6 to 8-week-old male ddY mice to harvest bone marrow cells by a conventional method using a syringe. In brief, tissues were removed from the dissected bone, the bone ends were cut off with scissors, and the bone marrow was isolated by pushing a medium-containing syringe (23G) against the one end of the cut bone. The isolated bone marrow was subjected to repeated piston movement of a syringe such that single cells were obtained (Reference: Endocrinology 123(1988), 2600 to 2602, Takahashi et al.). After removal of red blood cells within the bone marrow, the bone marrow cells recovered by centrifugation were placed in an α-MEM supplemented with 10% fetal bovine serum (FBS), followed by counting of nucleated cells and then were immediately used for a co-culture system.
2) Osteoclastogenesis Inhibition Experiment Via Co-Culture System
As the medium used for a co-culture system, a differentiation medium with the addition of differentiation factors 1α,25-dihydroxyvitamin D3 (10^−8M) and dexamethasone (10^−8M) to a-MEM supplemented with 10% FBS was used for the induction of osteoclastogenesis. First, the compounds dissolved in dimethyl sulfoxide (DMSO) at a concentration of 1 mM were diluted to 2 μM using the above-mentioned differentiation medium. As a vehicle control group, 0.2% (v/v) DMSO was added to the medium. 100 μL/well of each medium was added to 96-well plates. In addition, the above prepared bone marrow cells and osteoblasts were plated onto 96-well plates at a density of 1×10^5 cells/50 μL/well and 3×10^3 cells/50 μL/well, respectively. The total volume/well was 200 μL and the final compound concentration was 1 μM. The control group was 0.1% DMSO. The cells were cultured with exchange of the culture media with fresh media containing differentiation factors and test materials at an interval of 2 to 3 days.
7 days after culturing of cells, the formation of multinucleated osteoclasts was confirmed by microscopic examination, the medium was removed from the wells and then the cells were fixed in a 10% phosphate-buffered formalin solution. The degree of formation of mature osteoclasts was measured taking advantage of the characteristics of osteoclasts showing a positive reaction to a tartrate-resistant acid phosphatase (TRAP) staining solution. The TRAP staining solution was prepared in a manner such that naphthol AS-MS phosphate as a substrate and a coloring agent (Fast Red Violet LB salt) were dissolved in N,N-dimethylformamide, and a 0.1N NaHCO3 buffer solution containing 50 mM of tartaric acid was added thereto. Among the TRAP-positive cells under a light microscope, multinucleated osteoclasts having 6 to 7 nuclei were regarded as mature osteoclasts.
The degree of inhibition of osteoclastogenesis was calculated according to the following equation 1. The results are summarized in Table 27 below (Experiments were carried out for 4 wells/experimental group (n=4), and the results are given in terms of mean±standard deviation)
Inhibition of osteoclastogenesis(%)=(1−numbers of osteoclasts observed in experimental group/numbers of osteoclasts observed in vehicle control group)×100(%) [Equation 1]

[3] = system: Osteoblasts (Calvarial cells); assay: Cytotoxicity test (MTT); settings: 1 μM compound, 72 hours, in comparison with vehicle control
Procedure: as §1, §2, §3

Compound | Cell viability (%) Calvarial cell [1] | inhibition at 1 µM [2] | Cell viability (%) Calvarial cell [3] | Osteoclastogenesis inhibition (%) 1 μM [2]
Cc1ccc(Nc2nc(-n3ccnc3C(C)C)ccc2[N+](=O)[O-])cc1 [Compound 7, 2-(4-methylphenylamino)-6-[(2-isopropyl)imidazol-1-yl]-3-nitropyridine] | 103% | 100% | – | –
Cc1ccc(Nc2nc(NCCc3cccnc3)ccc2[N+](=O)[O-])cc1 [Compound 10, 2-(4-methylphenylamino)-6-[2-(3-pyridyl)ethylamino]-3-nitropyridine] | 116% | 64% | – | –
Cc1ccc(Nc2nc(N3CCNCC3)ccc2[N+](=O)[O-])cc1 [Compound 12, 2-(4-methylphenylamino)-6-(piperazin-1-yl)-3-nitropyridine] | 103% | 63% | – | –
COc1ccc(Nc2nc(N3CCC(N)CC3)ccc2[N+](=O)[O-])cc1 [Compound 28, 2-(4-methoxyphenylamino)-6-(4-aminopiperidino)-3-nitropyridine] | 89% | 88% | – | –
CC(C)(C)c1ccc(Nc2nc(N3CCNCC3)ccc2[N+](=O)[O-])cc1 [Compound 42, 2-[4-(t-butyl)phenylamino]-6-(piperazin-1-yl)-3-nitropyridine] | 103% | 96% | – | –
CSc1ccc(Nc2nc(NCCCn3ccnc3)ccc2[N+](=O)[O-])cc1 [Compound 55, 2-[4-(methylsulfanyl)phenylamino]-6-[(3-imidazol-1-yl)propylamino]-3-nitropyridine] | 105% | 98% | – | –
CCCCc1ccc(Nc2nc(NCCCn3ccnc3)ccc2[N+](=O)[O-])cc1 [Compound 56, 2-[4-(n-butyl)phenylamino]-6-[(3-imidazol-1-yl)propylamino]-3-nitropyridine] | 104% | 99% | – | –
Nc1ccc(Nc2nc(N3CCOCC3)ccc2[N+](=O)[O-])cc1 [Compound 64, 2-[4-(amino)phenylamino]-6-morpholino-3-nitropyridine] | 102% | 65% | – | –
Nc1ccc(Nc2nc(NCc3ccncc3)ccc2[N+](=O)[O-])cc1 [Compound 66, 2-[4-(amino)phenylamino]-6-[(4-pyridyl)methylamino]-3-nitropyridine] | 107% | 65% | – | –
CC(C)c1nccn1-c1ccc([N+](=O)[O-])c(Nc2ccc(-n3ccnc3)cc2)n1 [Compound 92, 2-[4-(imidazol-1-yl)phenylamino]-6-[(2-isopropyl)imidazol-1-yl]-3-nitropyridine] | 101% | 64% | – | –
O=[N+]([O-])c1ccc(NCc2cccnc2)nc1Nc1ccc(-n2ccnc2)cc1 [Compound 93, 2-[4-(imidazol-1-yl)phenylamino]-6-[(3-pyridyl)methylamino]-3-nitropyridine] | 98% | 66% | – | –
Cc1nc(-c2ccc(Nc3nc(NCC(C)C)ccc3[N+](=O)[O-])cc2)cs1 [Compound 134, 2-[4-(2-methylthiazol-4-yl)phenylamino]-6-(isobutylamino)-3-nitropyridine] | 93% | 61% | – | –
Cc1nc(-c2ccc(Nc3nc(N4CCNCC4)ccc3[N+](=O)[O-])cc2)cs1 [Compound 143, 2-[4-(2-methylthiazol-4-yl)phenylamino]-6-(piperazin-1-yl)-3-nitropyridine] | 85% | 99% | – | –
Cc1nc(-c2ccc(Nc3nc(N4CCC(N)CC4)ccc3[N+](=O)[O-])cc2)cs1 [Compound 144, 2-[4-(2-methylthiazol-4-yl)phenylamino]-6-(4-aminopiperidino)-3-nitropyridine] | 35% | 100% | – | –
CNc1ccc([N+](=O)[O-])c(Nc2ccc(-c3csc(C4CCCCC4)n3)cc2)n1 [Compound 151, 2-[4-(2-cyclohexylthiazol-4-yl)phenylamino]-6-(methylamino)-3-nitropyridine] | 101% | 70% | – | –
CC(C)Nc1ccc([N+](=O)[O-])c(Nc2ccc(-c3csc(C4CCCCC4)n3)cc2)n1 [Compound 152, 2-[4-(2-cyclohexylthiazol-4-yl)phenylamino]-6-(isopropylamino)-3-nitropyridine] | 105% | 85% | – | –
CC(C)CNc1ccc([N+](=O)[O-])c(Nc2ccc(-c3csc(C4CCCCC4)n3)cc2)n1 [Compound 153, 2-[4-(2-cyclohexylthiazol-4-yl)phenylamino]-6-(isobutylamino)-3-nitropyridine] | 107% | 78% | – | –
CC(C)(C)Nc1ccc([N+](=O)[O-])c(Nc2ccc(-c3csc(C4CCCCC4)n3)cc2)n1 [Compound 154, 2-[4-(2-cyclohexylthiazol-4-yl)phenylamino]-6-(t-butylamino)-3-nitropyridine] | 116% | 78% | – | –
O=[N+]([O-])c1ccc(NCc2ccncc2)nc1Nc1ccc(-c2csc(C3CCCCC3)n2)cc1 [Compound 163, 2-[4-(2-cyclohexylthiazol-4-yl)phenylamino]-6-[(4-pyridyl)methylamino]-3-nitropyridine] | 99% | 67% | – | –
O=[N+]([O-])c1ccc(NCc2ccncc2)nc1Nc1ccc(N2CCC(O)CC2)c(F)c1 [Compound 242, 2-{[3-fluoro-4-(4-hydroxypiperidino)]phenylamino}-6-[(4-pyridyl)methylamino]-3-nitropyridine] | – | – | 114% | 93%
NC1CCN(c2ccc([N+](=O)[O-])c(Nc3ccc(N4CCC(O)CC4)c(F)c3)n2)CC1 [Compound 246, 2-{[3-fluoro-4-(4-hydroxypiperidino)]phenylamino}-6-(4-aminopiperidino)-3-nitropyridine] | – | – | 105% | 80%
